From patent US7989585B2, “Chronic treatment regimen using glucagon-like insulinotropic peptides” (Eli Lilly and Company, priority 2000, dated 2011)
No end group written: not given here.

Columns and labels:
[1] = biological target: T1, human GLP-1 receptor (Homo sapiens, UniProt P43220); experiment: In vitro potency assay (CRE-BLAM fluorescence assay); format: cell-based; details: for In vitro activity relative to Val^8-GLP-1(7-37)OH: from EC50, HEK-293 Aurora CRE-BLAM cells, Val^8-GLP-1(7-37)OH control = 1; for potency higher than Val^8-GLP-1(7-37)OH: in vitro potency, approximate
T1 construct: expressed in transfected cells; host or cells: HEK-293 Aurora CRE-BLAM cells
Text: The assay is discussed in more detail on page 17 and in example 3.
These HEK-293 cells have stably integrated a DNA vector having a cAMP response element (CRE) driving expression of the β-lactamase (BLAM) gene. […] The assay is further described in Zlokarnik, et al. (1998) Science 279:84-88 (See also Example 3).
The day after seeding, the medium is replaced with plasma free medium.

[2] = cited from earlier work

T1 sequence (P43220 24-463): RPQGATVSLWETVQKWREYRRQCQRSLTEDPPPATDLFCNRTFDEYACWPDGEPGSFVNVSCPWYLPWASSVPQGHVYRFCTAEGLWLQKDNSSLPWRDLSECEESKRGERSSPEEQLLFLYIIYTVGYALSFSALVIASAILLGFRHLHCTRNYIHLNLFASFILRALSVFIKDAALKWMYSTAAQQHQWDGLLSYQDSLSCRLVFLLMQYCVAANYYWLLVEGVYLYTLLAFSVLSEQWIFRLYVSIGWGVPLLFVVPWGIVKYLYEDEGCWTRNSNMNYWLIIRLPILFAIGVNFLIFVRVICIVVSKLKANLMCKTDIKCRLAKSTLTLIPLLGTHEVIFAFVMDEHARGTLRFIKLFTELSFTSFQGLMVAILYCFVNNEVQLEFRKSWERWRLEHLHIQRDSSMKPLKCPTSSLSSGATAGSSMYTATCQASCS

| Substance | In vitro activity relative to Val^8-GLP-1(7-37)OH [1] | other results |
| --- | --- | --- |
| Val^8-Trp^12-GLP-1(7-37)OH | 1.07 | – |
| Gly^8-GLP-1(7-37)OH (HGEGTFTSDVSSYLEGQAAKEFIAWLVKGRG-OH; UniProt P01275 98-128, looked up, variant A8G) [GLP-1 analog] | 1.67 | – |
| Exendin-4 [reference compound] | 4.5 | potency higher than Val^8-GLP-1(7-37)OH [1]: approximately 5 fold |
| GLP-1(7-37)OH | – | intact GLP-1 levels ([2]; 2.4 pmol/kg/min (Toft-Nielsen et al.)): ~22.5 picomolar; plasma levels of intact GLP-1 ([2]; continuous administration 0.75 pmol/kg/min for 180 min, last 120 min of treatment (Naslund et al.)): approximately 20 picomolar |
| Val^8-GLP-1(7-36)NH2 | 1.06 | – |
| Arg^34Lys^26-(N-ε-(γ-Glu(N-α-hexadecanoyl)))-GLP-1(7-37) [reference compound] | 1.92 | – |

The next lines start with results.

| In vitro activity relative to Val^8-GLP-1(7-37)OH [1] | Substance | other results |
| --- | --- | --- |
| 1.22 | Val^8-Lys^22-GLP-1(7-37)OH | – |
| 1.13 | Val^8-Leu^16-GLP-1(7-37)OH | – |
| 1.73 | Val^8-Tyr^12-GLP-1(7-37)OH | – |
| 1.47 | Val^8-Arg^26-GLP-1(7-37)OH | – |
| 3.33 | Val^8-Glu^22-GLP-1(7-37)OH | potency higher than Val^8-GLP-1(7-37)OH [1]: approximately 3 fold |
